Patent publication US20220196636A1, “GRID OF RESPONSES INDICATING DRUG SENSITIVITY” (The Johns Hopkins University, priority 2019, published 2022)

What was measured:
Assay type in all cases: cell-based, human
[1] = test system: hiPSC-CM monolayers; assay: GRIDS assay (pace-capture and spontaneous activity by optical mapping), monolayers
Experimental: (§1) Each EHS was placed in Tyrode's solution and stained with 10 μM di-4-ANEPPS for 10 min at 37° C. The EHS was rinsed several times in a dish with warm Tyrode's solution, and then immersed in Tyrode's solution containing 10 μM blebbistatin to suppress contraction. The dish was placed on a 37° C. heated stage for the duration of the experiment. At least 5 min after adding blebbistatin, the EHS was stimulated with a point electrode and optically mapped using a CMOS camera (MiCAM Ultima-L, SciMedia). The EHS was paced by 5 ms monophasic rectangular pulses at stepwise increasing rates starting at 0.5 Hz. For some samples, E-4031, chromanol 293B, nifedipine, Bay K 8644, BaCl2, or cromakalim was added for 7 min prior to mapping. Mapping data were analyzed using custom MATLAB scripts (details provided in Supplemental Information). AP durations at 30% and 80% repolarization (APD30 and APD80) were calculated from the optical voltage signal. For drug studies, APD and conduction velocity (CV) measurements at each concentration were plotted as a percentage of APD and CV measured at baseline, with no drug present.
(§2) To test the responsiveness of EHS to ion channel modulators, an assay referred to herein as “GRIDS” (grid of responses indicating drug sensitivity) was developed that characterizes the ability of a cardiac preparation to respond to pacing when exposed to a range of drug concentrations. This assay was used to compare EHS to age-matched monolayer cultures. APs of EHS and monolayers were evaluated at each drug concentration in the absence of pacing and when subjected to electrical stimulation at PCLs ranging from 2000 ms to 500 ms. By incorporating a range of pacing rates, GRIDS manifests the distinct sensitivities of different ion currents (Ravens and Wettwer, 1998) and their rate dependencies, and provides a “fingerprint” of drug sensitivity. Several types of responses were observed: no spontaneous activity (FIG. 6A,i), spontaneously generated APs when no pacing was applied (FIG. 6A,ii), extra APs in between pacing stimuli (FIG. 6A, iii), one AP generated for each pacing stimulus—i.e., 1:1 pace-capture (FIG. 6A, iv), and failure to maintain 1:1 pace-capture (lost beats) (FIG. 6A,v).
(§3) EHS were stained with 10 μM of the voltage-sensitive dye di-4-ANEPPS (Sigma-Aldrich Corp.) in Tyrode's solution for 10 minutes at 37° C. Afterwards, EHS were rinsed twice with Tyrode's and placed in a 35-mm dish filled with Tyrode's and 10 μM of the contraction inhibitor blebbistatin (Sigma-Aldrich Corp.). This dish was set on a stage heated to 37° C. and allowed to equilibrate for at least 5 minutes. Samples were point paced with at least 30 stimulus pulses at a range of cycle lengths, starting from 2000 ms and decreasing until the they lost capture. EHS were optically mapped during pacing using a 100×100 pixel CMOS camera (MiCAM Ultima-L, SciMedia, Costa Mesa, Calif.).
(§4) During drug studies, recordings at a range of pacing rates were taken at baseline (prior to the addition of drug) before replacing the solution in the dish with Tyrode's supplemented with blebbistatin and the lowest dose of drug studied. The sample was paced at the same range of rates and mapped 7 minutes after the addition of drug. Afterwards, the bath solution was replaced with Tyrode's with blebbistatin and the next lowest drug dose and the procedure repeated. This method was applied for all doses of each drug and, except where noted in the figures, only one drug was tested per sample. In these studies, we superfused EHS or monolayers with the following drugs: E-4031 (Tocris Bioscience), BaCl2 (Sigma-Aldrich Corp.), Chromanol 293B (Tocris Bioscience), Nifedipine (Tocris Bioscience), Bay K 8644 (Tocris Bioscience), and Cromakalim (Sigma-Aldrich Corp.).
(§5) Optical mapping data was analyzed using custom MATLAB scripts. […]

[2] = test system: engineered heart slices (EHS) of hiPSC-CMs; assay: Optical mapping of action potential duration and conduction velocity, EHS; settings: for change in APD80 compared to baseline, d201 EHS / change in conduction velocity compared to baseline, d201 EHS: paced at 1900 ms, n=4
Experimental: as §1, §3, §4
(§6) Optical mapping data was analyzed using custom MATLAB scripts. Recordings at each pixel were de-noised using a previously described method (Little and Jones, 2010) to regulate total signal variance and convolved with a 5×5 spatial Gaussian filter. Activation times were defined as the maximum of the derivative of membrane potential (dV/dt), which was calculated as previously described (Chartrand, 2011). Histograms of local conduction velocities for each EHS were fitted to a Gaussian curve and the mean of the curve was defined as the average conduction velocity (CV). To determine longitudinal and transverse CVs, a bimodal Gaussian curve was fitted to the local CVs. Action potential durations at 30 and 80 percent repolarization (APD30 and APD80) were determined for all local traces over the recording region for each EHS and fit with Gaussian curves to determine the mean value for each EHS, as described for CV measurements. For drug studies, average APD and CV measurements for each dose were normalized by average APD and CV measurements at baseline (without the drug).

[3] = test system: hiPSC-CM monolayers; assay: Optical mapping of action potential duration and conduction velocity, monolayers
Experimental: as §1, §3, §4, §6

[4] = test system: engineered heart slices (EHS) of hiPSC-CMs; assay: GRIDS assay (pace-capture and spontaneous activity by optical mapping), EHS
Experimental: as §1, §2, §3, §4, §5

[5] = test system: monolayers of hiPSC-CMs; assay: GRIDS analysis applied to video-based contraction data, monolayers; settings: n=6
Experimental: GRIDS analysis was applied to contraction data collected from monolayers of hiPSC-CMs. Each monolayer (cultured on a plastic coverslip) was placed in a 35-mm dish filled with cell culture medium and set on the stage of a microscope (LS720, Etaluma) fitted within a cell culture incubator. Monolayers were superfused with increasing concentrations of E-4031 (FIG. 15) or isoproterenol (FIG. 16), ranging from 0 to 10 μM, and paced at decreasing cycle lengths (increasing rates), ranging from 2000 ms to 500 ms, using a field electrode. At each drug dose and paced cycle length, a 30-second video of the contracting cells was recorded at a rate of 20-30 frames per second. The cellular contraction was quantified by subtracting one reference frame of video from all other frames, summing the pixels in each frame after subtraction, plotting the summed signal over time, and detecting the peaks in the signal.

[6] = test system: engineered heart slices (EHS) of hiPSC-CMs; assay: Contraction measurements of EHS (change in EHS area during pacing)
Experimental: WT d24-78 EHS were placed in a 35-mm tissue culture mm dish filled with Tyrode's solution and maintained at 31±0.1° C. for the duration of the experiment. A section of each EHS was detached from the edge of the coverslip so that it could move freely. Each EHS was paced at 1 Hz, 1.5 Hz, and 2 Hz while the free region was imaged with a CCD camera. A custom MATLAB script was used to segment the image and calculate the change in EHS area over time, which was used as a measure of contraction.
Tyrode's solution was prepared by combining 1.8 mM CaCl2, 5 mM glucose, 5 mM HEPES, 1 mM MgCl2, 5.4 mM KCl, 135 mM NaCl, and 0.33 mM NaH2PO4 in ddH2O and adding NaOH to raise the pH to 7.4 (all chemicals from Sigma-Aldrich Corp.). EHS were placed in a 35-mm dish filled with Tyrode's solution and set on a stage heated to 31±0.1° C. (Warner Instruments, Hamden, Conn.). A section of each EHS was unhooked and allowed to move freely throughout the duration of the experiment. The EHS were allowed to equilibrate in Tyrode's for 5 minutes before the start of pacing with a point electrode. Each sample was paced for 1 minute at each of 3 cycle lengths (1000 ms, 666 ms, 500 ms), while the freely moving region was kept approximately vertical in the field of view and imaged at 4× magnification using a CCD camera (Swiftcam, Swift, Schertz, Tex.) at a rate of 14-17 fps with 320×256 pixel resolution. Samples also were imaged during pacing at 666 ms after the application of 1 μM isoproterenol (Sigma-Aldrich Corp.) for 2 minutes and after washout of the drug for 2 minutes. A pacing cycle length shorter than 1000 ms was applied in the presence of isoproterenol to overcome the increase in spontaneous rate in response to the drug. […] From this, the area of EHS was calculated in each image. The change in area from a fully relaxed state (reference frame, designated as 100% EHS area) was determined for each frame in the time series. […]

[7] = chromanol 293B, all concentrations tested
[8] = chromanol 293B 1 μM to 60 μM, PCL 1000 ms
[9] = BaCl2 up to 150 μM, PCL 1000 ms, concentration-dependent
[10] = additional 1 μM Bay K 8644 after 1 μM cromakalim
[11] = E-4031 50 nM to 10 μM, PCL 1500 ms, concentration-dependent

CCS(=O)(=O)N(C)[C@H]1c2cc(C#N)ccc2OC(C)(C)[C@@H]1O (racemic) [chromanol 293B]
pace-capture (GRIDS), monolayers [1, 7]: could be pace-captured at all PCLs from 2000 ms down to 500 ms | fraction of monolayers exhibiting spontaneous activity when no pacing was applied ([1]; chromanol 293B, concentrations up to 60 μM): non-zero and constant at all concentrations except for 5 μM, when it was zero, and 60 μM, when all monolayers exhibited spontaneous activity | change in APD80, EHS [2, 8]: no effect | change in CV, EHS [2, 8]: no effect | change in APD80, monolayers [3, 8]: no effect | change in CV, monolayers [3, 8]: no effect | pace-capture (GRIDS), EHS [4, 7]: could be pace-captured at all PCLs from 2000 ms down to 500 ms

[Ba+2].[Cl-].[Cl-] [BaCl2]
pace-capture (GRIDS), monolayers ([1]; 500 μM BaCl2): could be partially pace-captured only at CLs of 1000 ms and less | spontaneous beating rate, monolayers ([1]; 500 μM BaCl2): up to 1 Hz | pace-capture (GRIDS), monolayers ([1]; 1 mM BaCl2): only a small fraction could be partially pace-captured at a CL of 500 ms | spontaneous beating rate, nearly all monolayers ([1]; 1 mM BaCl2): > 2 Hz | spontaneous rate, monolayers ([1]; BaCl2, no pacing, effect greater in monolayers than in EHS): increased in a concentration-dependent manner | change in APD80, EHS [2, 9]: increased APD80 | change in CV, EHS ([2]; BaCl2 up to 150 μM, PCL 1000 ms, statistically significant): decreased CV | change in APD80, monolayers [3, 9]: increased APD80 | change in CV, monolayers ([3]; BaCl2 up to 150 μM, PCL 1000 ms, did not reach statistical significance): decreased CV | pace-capture (GRIDS), EHS ([4]; 1 mM BaCl2, 500 ms PCL): all of the EHS tested lost capture | sensitivity (GRIDS), EHS compared with monolayers ([4]; BaCl2): less sensitive to BaCl2 than monolayers | spontaneous rate, EHS ([4]; BaCl2, no pacing): increased in a concentration-dependent manner | pace-capture (GRIDS), EHS ([4]; all concentrations of BaCl2): could be overdrive paced at 700 ms and 1000 ms PCL for all concentrations

COC(=O)C1=C(C)NC(C)=C([N+](=O)[O-])C1c1ccccc1C(F)(F)F (centres unmarked) [Bay K 8644]
change in CV, EHS ([2]; Bay K 8644 0.3 μM to 100 μM, concentration-dependent, n=3): decreased CV | change in APD, EHS ([2]; Bay K 8644 0.3 μM to 100 μM, paced at 700 ms, concentration-dependent, n=3): increased APD | maximum capture rate, EHS ([2]; Bay K 8644, n=3): decreased the maximum capture rate | change in APD80 compared to baseline, d201 EHS [2, 10]: decreased APD80 | change in conduction velocity compared to baseline, d201 EHS [2, 10]: slowed conduction velocity

Cc1cccc(CCN2CCC(C(=O)c3ccc(NS(C)(=O)=O)cc3)CC2)n1 [E-4031]
loss of capture during pacing (GRIDS), monolayers ([1]; E-4031 greater than 50 nM (tested 1 nM to 10 μM), increasingly shorter PCLs): a greater fraction of monolayers than EHS lost capture | change in APD80, EHS [2, 11]: prolonged APD80 | change in CV, EHS [2, 11]: slowed CV | change in APD80, monolayers [3, 11]: prolonged APD80 | change in CV, monolayers [3, 11]: slowed CV | pace-capture from contraction video (GRIDS), monolayers ([5]; E-4031 0 to 10 μM, PCL 2000 ms to 500 ms, more pronounced at higher doses): began to lose capture as the pacing rate was increased | sensitivity of pace-capture (GRIDS), EHS compared with monolayers ([4]; E-4031 greater than 50 nM (tested 1 nM to 10 μM), rapid pacing): lower sensitivity of EHS to E-4031

CC1(C)Oc2ccc(C#N)cc2C(N2CCCC2=O)C1O (centres unmarked) [cromakalim]
change in APD80 compared to baseline, d201 EHS ([2]; 1 μM cromakalim): decreased APD80 | change in conduction velocity compared to baseline, d201 EHS ([2]; 1 μM cromakalim): slowed conduction velocity

CC(C)NCC(O)c1ccc(O)c(O)c1 (centres unmarked) [isoproterenol]
spontaneous rate from contraction video (GRIDS), monolayers ([5]; isoproterenol 0 to 10 μM, no pacing or 2000 ms pacing): increased the spontaneous rate of the monolayers in a dose-dependent manner | area change during contraction relative to baseline ([6]; 1 μM isoproterenol, PCL 666 ms (1.5 Hz), n=8): 1.5±0.6 fold | inotropic response ([6]; EHS): positive inotropic response | area change during contraction relative to baseline after washout of the drug ([6]; after washout of 1 μM isoproterenol, PCL 666 ms, n=8): 1.1±0.4 times the baseline value
